Among the data in patent US8859559B2, “Substituted pyrazines and their use in the treatment of disease” (Boehringer Ingelheim International GmbH, priority 2011, dated 2014) are IC50 values, retold here.

For the assay, the target named is T1, ENaC (Epithelial Sodium Channel) (Mus musculus, UniProt Q61180+Q9WU38+Q9WU39).
T1 construct: Mouse kidney M-1 cells were cultivated in DMEM; endogenous in cells; host or cells: Mouse kidney M-1 cells (dexamethasone-treated, on transwell filters)
T1 sequence (Q61180 1-699): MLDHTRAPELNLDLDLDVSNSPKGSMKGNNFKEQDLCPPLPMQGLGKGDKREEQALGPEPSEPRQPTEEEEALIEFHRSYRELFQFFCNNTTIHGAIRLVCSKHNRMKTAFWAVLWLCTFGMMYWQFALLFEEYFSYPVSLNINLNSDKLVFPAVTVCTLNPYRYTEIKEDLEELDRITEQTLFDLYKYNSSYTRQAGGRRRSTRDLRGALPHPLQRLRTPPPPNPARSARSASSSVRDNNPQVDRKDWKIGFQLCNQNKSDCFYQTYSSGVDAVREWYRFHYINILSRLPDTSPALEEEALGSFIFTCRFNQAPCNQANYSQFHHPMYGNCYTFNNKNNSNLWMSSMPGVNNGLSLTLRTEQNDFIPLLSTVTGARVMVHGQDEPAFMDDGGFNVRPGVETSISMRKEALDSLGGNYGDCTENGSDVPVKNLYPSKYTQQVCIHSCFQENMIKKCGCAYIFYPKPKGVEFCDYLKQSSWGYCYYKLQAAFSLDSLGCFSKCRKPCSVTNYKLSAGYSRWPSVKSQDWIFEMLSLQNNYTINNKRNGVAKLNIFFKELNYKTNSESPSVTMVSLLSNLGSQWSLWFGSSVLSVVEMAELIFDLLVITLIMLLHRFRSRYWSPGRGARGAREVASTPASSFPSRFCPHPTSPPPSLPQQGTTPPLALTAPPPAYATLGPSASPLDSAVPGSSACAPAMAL
T1 sequence (Q9WU38 1-638): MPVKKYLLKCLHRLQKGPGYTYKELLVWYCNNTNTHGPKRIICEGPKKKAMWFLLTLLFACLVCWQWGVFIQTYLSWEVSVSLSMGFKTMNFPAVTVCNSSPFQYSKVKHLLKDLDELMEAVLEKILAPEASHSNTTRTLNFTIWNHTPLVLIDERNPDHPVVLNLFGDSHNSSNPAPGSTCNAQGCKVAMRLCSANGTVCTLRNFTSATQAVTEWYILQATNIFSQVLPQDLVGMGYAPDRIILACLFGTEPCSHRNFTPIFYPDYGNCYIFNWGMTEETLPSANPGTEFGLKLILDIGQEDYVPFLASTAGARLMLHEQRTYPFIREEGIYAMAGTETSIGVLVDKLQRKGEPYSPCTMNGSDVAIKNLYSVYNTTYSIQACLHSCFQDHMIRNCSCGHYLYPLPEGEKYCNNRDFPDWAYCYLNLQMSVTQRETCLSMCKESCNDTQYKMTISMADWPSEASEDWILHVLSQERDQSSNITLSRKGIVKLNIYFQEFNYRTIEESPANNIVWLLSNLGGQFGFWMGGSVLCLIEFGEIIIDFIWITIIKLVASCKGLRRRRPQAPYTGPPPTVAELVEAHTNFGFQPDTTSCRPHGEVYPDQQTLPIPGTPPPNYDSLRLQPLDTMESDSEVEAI
T1 sequence (Q9WU39 1-655): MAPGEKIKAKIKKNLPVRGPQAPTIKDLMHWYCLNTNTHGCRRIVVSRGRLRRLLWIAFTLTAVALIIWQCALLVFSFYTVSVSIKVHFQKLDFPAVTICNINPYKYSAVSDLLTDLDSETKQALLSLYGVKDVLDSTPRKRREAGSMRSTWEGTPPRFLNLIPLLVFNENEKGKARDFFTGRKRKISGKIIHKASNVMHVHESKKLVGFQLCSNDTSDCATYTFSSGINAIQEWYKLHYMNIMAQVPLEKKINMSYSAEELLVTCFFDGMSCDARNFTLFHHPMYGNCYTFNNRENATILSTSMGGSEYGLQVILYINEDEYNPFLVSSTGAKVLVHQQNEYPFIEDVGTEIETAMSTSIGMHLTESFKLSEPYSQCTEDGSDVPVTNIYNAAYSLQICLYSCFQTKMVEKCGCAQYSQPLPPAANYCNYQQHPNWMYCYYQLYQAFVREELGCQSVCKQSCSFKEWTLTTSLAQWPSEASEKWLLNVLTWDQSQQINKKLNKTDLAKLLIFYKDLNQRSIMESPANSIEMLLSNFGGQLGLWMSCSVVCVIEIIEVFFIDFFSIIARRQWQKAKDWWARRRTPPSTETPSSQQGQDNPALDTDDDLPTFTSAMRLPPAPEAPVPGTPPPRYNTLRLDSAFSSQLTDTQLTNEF
The assay can be described thus: Ussing chamber: inhibition of amiloride sensitive short circuit current (I_sc) in M-1 cells. The assay is classed as cell-based. As to conditions: mouse kidney M-1 cells. How it is done:
Mouse kidney M-1 cells were cultivated in DMEM containing 5% FCS and 5 μM dexamethasone for 10 to 12 days on polyester transwell filters. Filters were inserted into a teflon-coated well-plate which fit into the in-house ussing chamber system. Prior to measurement the medium of M-1 cells was replaced with Caco-2 transport buffer (Invitrogen, Germany). During measurements, the Ussing chamber temperature was kept at 37° C. Short circuit currents (I_sc) were measured in the voltage-clamp mode using an in-house built amplifier (Boehringer Ingelheim, Biberach) with the software package Lab View for data acquisition and analysis. The transepithelial electrical resistance (TEER) was determined by the application of voltage steps of ±5 mV every 5 sec. Compounds were administered at a final concentration of 3 μM or at increasing concentrations (1-3-10 μM) to the apical solution. At the end of each experiment the amiloride sensitive I_SC was measured by adding 3 μM amiloride to the apical compartment. Results are expressed as inhibition in percent of the amiloride effect or as IC50. With the example compounds given above, the following IC50 values were determined in the Ussing Chamber assay: […]

By IC50 is commonly meant the concentration that inhibits the measured activity by half. A low value points to inhibition by little substance. As to `NC(=NC(=O)c1nc(Cl)c(N)nc1N)NC1CC2CCC(C1)N2Cc1ccccc1` (single isomer, unassigned) [Example 1.27], the IC50 is 49 nM.
In the case of `NC(=NC(=O)c1nc(Cl)c(N)nc1N)NC1CC2CCC(C1)N2Cc1ccccc1` (single isomer, unassigned) [Example 1.28], the IC50 was 16 nM.
On to `COC(=O)c1ccc(CN2CCC(N/C(N)=N/C(=O)c3nc(Cl)c(N)nc3N)CC2)c(OC)c1` [Example 1.1], for which the midpoint of inhibition, the IC50, lay at 5 nM.
Turning to `N/C(=N\C(=O)c1nc(Cl)c(N)nc1N)NC1CCN(Cc2ccc(CO)cc2)CC1` [Example 1.2], the IC50 worked out at 10 nM.
Molecule `[N-]=[N+]=NCCc1ccc(CN2CCC(NC(N)=NC(=O)c3nc(Cl)c(N)nc3N)CC2)cc1` [Example 1.3] showed an IC50 of 4 nM.
The value for `C#CCOc1ccc(CN2CCC(NC(N)=NC(=O)c3nc(Cl)c(N)nc3N)CC2)cc1` [Example 1.4] was 4 nM.
Then `COC(=O)c1ccc(=O)n(Cc2ccc(CN3CCC(NC(N)=NC(=O)c4nc(Cl)c(N)nc4N)CC3)cc2)c1` [Example 1.5], with 7 nM.
For the molecule `COC(=O)Cc1cccc(CN2CCC(NC(N)=NC(=O)c3nc(Cl)c(N)nc3N)CC2)c1` [Example 1.6], the IC50 amounted to 4 nM.
Then `[N-]=[N+]=NCCOCCOCCOCCNC(=O)c1ccc(CN2CCC(NC(N)=NC(=O)c3nc(Cl)c(N)nc3N)CC2)cc1` [Example 1.7], with 4 nM.
Then `CCOP(=O)(Cc1ccc(CN2CCC(NC(N)=NC(=O)c3nc(Cl)c(N)nc3N)CC2)cc1)OCC` [Example 1.8], with 10 nM; and `C#CCCCCOC(=O)c1ccc(CN2CCC(NC(N)=NC(=O)c3nc(Cl)c(N)nc3N)CC2)cc1` [Example 1.9], with 8 nM; and `[N-]=[N+]=Nc1ccc(CN2CCC(N/C(N)=N/C(=O)c3nc(Cl)c(N)nc3N)CC2)cc1` [Example 1.10], with 6 nM.
Then `COC(=O)c1ccc(CN2CCC(N/C(N)=N/C(=O)c3nc(Cl)c(N)nc3N)CC2)c(Cl)c1` [Example 1.12], with 4 nM.
As to `CCOP(=O)(OCC)c1ccc(CN2CCC(NC(N)=NC(=O)c3nc(Cl)c(N)nc3N)CC2)cc1` [Example 1.13], the IC50 was found to be 5 nM.
The value for `CN(C)CCNC(=O)c1ccc(CN2CCC(NC(N)=NC(=O)c3nc(Cl)c(N)nc3N)CC2)cc1` [Example 1.14] was 1 nM; that for `N/C(=N\C(=O)c1nc(Cl)c(N)nc1N)NC1CCN(Cc2ccc(B(O)O)cc2)CC1` [Example 1.15] was 7 nM; that for `CCOC(=O)c1ccc(=O)n(-c2ccc(CN3CCC(NC(N)=NC(=O)c4nc(Cl)c(N)nc4N)CC3)cc2)c1` [Example 1.16] was 17 nM.
`COC(=O)c1ccc(CN2CCC(C)(NC(N)=NC(=O)c3nc(Cl)c(N)nc3N)CC2)cc1` [Example 1.17] yielded an IC50 of 66 nM.
For `[N-]=[N+]=NCCOCCOCCOCCOc1ccc(CN2CCC(NC(N)=NC(=O)c3nc(Cl)c(N)nc3N)CC2)cc1` [Example 1.18], the IC50 worked out at 7 nM.
For the molecule `COc1ccc(CCN2CCC(NC(N)=NC(=O)c3nc(Cl)c(N)nc3N)CC2)cc1` [Example 1.19], the IC50 came out at 12 nM.
`COc1ccc(C(=O)CN2CCC(NC(N)=NC(=O)c3nc(Cl)c(N)nc3N)CC2)cc1` [Example 1.20] yielded an IC50 of 11 nM.
For `N#Cc1ccc(OCCN2CCC(NC(N)=NC(=O)c3nc(Cl)c(N)nc3N)CC2)cc1` [Example 1.21], the IC50 worked out at 11 nM.
Then `NC(=NC(=O)c1nc(Cl)c(N)nc1N)NC1CCCN(Cc2ccccc2)CC1` (stereo not drawn) [Example 1.22], with 14 nM.
The value for `NC(=NC(=O)c1nc(Cl)c(N)nc1N)NC1CCN(Cc2ccc(C(=O)NCCCn3ccnc3)cc2)CC1` [Example 1.23] was 2 nM.
Then `NC(=NC(=O)c1nc(Cl)c(N)nc1N)NC1CCN(Cc2ccc(C(=O)NCCc3cccnc3)cc2)CC1` [Example 1.24], with 3 nM.
In turn, `N/C(=N\C(=O)c1nc(Cl)c(N)nc1N)NC1CCN(Cc2ccccc2)CC1` [Example 1.25] came in with an IC50 of 6 nM.
As to `NC(=NC(=O)c1nc(Cl)c(N)nc1N)NC1CCN(Cc2ccccc2)C1` (stereo not drawn) [Example 1.26], the IC50 is 20 nM.
Then `COC(=O)c1ccc(CN2CCC(N/C(N)=N/C(=O)c3nc(Cl)c(N)nc3N)CC2)cc1` [Example 1.29], with 2 nM; and `N/C(=N\C(=O)c1nc(Cl)c(N)nc1N)NC1CCN(Cc2ccc(O)cc2)CC1` [Example 1.31], with 7 nM; and `C#Cc1cccc(CN2CCC(NC(N)=NC(=O)c3nc(Cl)c(N)nc3N)CC2)c1` [Example 1.32], with 7 nM.
The value for `CN(C)CCCOc1ccc(CN2CCC(NC(N)=NC(=O)c3nc(Cl)c(N)nc3N)CC2)cc1` [Example 1.34] was 5 nM; that for `COC(=O)c1cccc(CN2CCC(NC(N)=NC(=O)c3nc(Cl)c(N)nc3N)CC2)c1` [Example 1.36] was 3 nM.
For the molecule `COC(=O)C(c1ccccc1)N1CCC(NC(N)=NC(=O)c2nc(Cl)c(N)nc2N)CC1` (stereo not drawn) [Example 1.37], the IC50 is 17 nM.
`COC(=O)Cc1ccc(CN2CCC(NC(N)=NC(=O)c3nc(Cl)c(N)nc3N)CC2)cc1` [Example 1.38] registered an IC50 of 8 nM.
Then `NC(=NC(=O)c1nc(Cl)c(N)nc1N)NC1CCN(Cc2ccc(C(=O)NCCOCCOCCO)cc2)CC1` [Example 1.39], with 6 nM; and `N#Cc1ccc(CN2CCC(N/C(N)=N/C(=O)c3nc(Cl)c(N)nc3N)CC2)cc1` [Example 1.40], with 2 nM; and `CC(=O)Oc1ccc(CN2CCC(N/C(N)=N/C(=O)c3nc(Cl)c(N)nc3N)CC2)cc1` [Example 1.41], with 7 nM.
For the molecule `COC(=O)COc1ccc(CN2CC[C@H](NC(N)=NC(=O)c3nc(Cl)c(N)nc3N)C2)cc1` [Example 1.42], the IC50 was 59 nM.
The value for `COC(=O)c1ccccc1CN1CCC(NC(N)=NC(=O)c2nc(Cl)c(N)nc2N)CC1` [Example 1.43] was 15 nM.
For `COC(=O)COc1cccc(CN2CCC(NC(N)=NC(=O)c3nc(Cl)c(N)nc3N)CC2)c1` [Example 1.44], the IC50 is 20 nM.
The molecule `COC(=O)CCc1ccc(CN2CCC(NC(N)=NC(=O)c3nc(Cl)c(N)nc3N)CC2)cc1` [Example 1.45] registered an IC50 of 10 nM.
Consider `COC(=O)COc1ccc(CN2CC[C@@H](NC(N)=NC(=O)c3nc(Cl)c(N)nc3N)C2)cc1` [Example 1.46], for which the IC50 stood at 73 nM.
